Here are results for 15 molecules from PubChem BioAssay (NCI).

The structures appear in SMILES notation.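 Cells were grown in 96-well plates and exposed to each compound for 48 hours at five concentrations; endpoints were interpolated linearly between bracketing concentrations, or set to the highest concentration if not reached. TGI marks complete inhibition of growth.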

Among the test systems are 786-0 renal; ACHN renal; BT-549 breast; HOP-92 NSCLC; HS 578T breast; HT29 colon; K-562 leukemia; KM12 colon; OVCAR-5 ovarian; PC-3 prostate; SF-268 CNS; SF-295 CNS; SK-MEL-28 melanoma; SK-OV-3 ovarian; SN12C renal; TK-10 renal; UACC-257 melanoma; UACC-62 melanoma; SF-539 CNS; SK-MEL-2 melanoma.
What all share (test): NCI-60 cell line screen, 48 h

Take `Nc1ccccc1N=Nc1c(S(=O)(=O)O)cc2cc(S(=O)(=O)O)cc(O)c2c1O`: the TGI with 786-0 renal, in the assay on ACHN renal, in the assay with BT-549 breast, with HOP-92 NSCLC, in the assay with HS 578T breast and in the assay on HT29 colon was over 100 µM each time. For the same molecule, the TGI in the assay on K-562 leukemia, in the assay with KM12 colon, in the assay with OVCAR-5 ovarian, with PC-3 prostate, in the assay on SF-268 CNS and in the assay with SF-295 CNS was over 100 µM each time. In addition, the TGI in the assay with SK-MEL-28 melanoma, in the assay on SK-OV-3 ovarian, in the assay with SN12C renal, in the assay on TK-10 renal, in the assay on UACC-257 melanoma and in the assay with UACC-62 melanoma was over 100 µM throughout.
With `COc1ccc(CNC(=O)[C@H](Cc2ccc(O)cn2)NC(C)=O)cc1`, the TGI with 786-0 renal, with ACHN renal, in the assay on BT-549 breast, in the assay with HS 578T breast, with HT29 colon and in the assay with K-562 leukemia was over 100 µM in each case. Moreover, the TGI in the assay with KM12 colon, in the assay on OVCAR-5 ovarian, in the assay on PC-3 prostate, with SF-268 CNS, in the assay on SF-295 CNS and in the assay on SF-539 CNS was over 100 µM in each case. For the same molecule, the TGI in the assay with SK-MEL-2 melanoma, with SK-MEL-28 melanoma, in the assay with SK-OV-3 ovarian, with SN12C renal, in the assay with TK-10 renal and in the assay with UACC-257 melanoma was over 100 µM each time. Further, the TGI in the assay with UACC-62 melanoma was over 100 µM.
As to `CCOC(=O)NC(=S)c1ccc(O)c2ccccc12`, the TGI in the assay on 786-0 renal was over 100 µM; with ACHN renal, over 100 µM; in the assay with BT-549 breast, 95.2 µM; in the assay on HS 578T breast, over 100 µM; in the assay with HT29 colon it was over 100 µM; in the assay with K-562 leukemia it was over 100 µM. For the same molecule, the TGI in the assay on KM12 colon, in the assay with OVCAR-5 ovarian, with PC-3 prostate, with SF-268 CNS, in the assay on SF-295 CNS and in the assay with SF-539 CNS was over 100 µM each time. The TGI in the assay with SK-MEL-2 melanoma, in the assay with SK-MEL-28 melanoma, in the assay on SK-OV-3 ovarian, in the assay with UACC-257 melanoma and in the assay on UACC-62 melanoma was over 100 µM each time.
Turning to `O=C(NNC(=S)NCc1ccccc1)C12CC3CC(CC(C3)C1)C2`, the TGI in the assay on 786-0 renal, in the assay with ACHN renal, with BT-549 breast, in the assay with HS 578T breast, in the assay on HT29 colon and in the assay on K-562 leukemia was over 100 µM in each case. The TGI in the assay with KM12 colon, in the assay with OVCAR-5 ovarian, in the assay on PC-3 prostate, in the assay on SF-268 CNS, in the assay on SF-295 CNS and in the assay with SF-539 CNS was over 100 µM in each case. Also, the TGI with SK-MEL-2 melanoma, in the assay with SK-MEL-28 melanoma, in the assay with SK-OV-3 ovarian, with SN12C renal, with TK-10 renal and in the assay with UACC-257 melanoma was over 100 µM in each case. The TGI in the assay with UACC-62 melanoma is over 100 µM.
Regarding `Cc1ccc(C)n1-n1c(-c2ccccc2)n[nH]c1=O`, the TGI with 786-0 renal, in the assay with ACHN renal, in the assay with BT-549 breast, in the assay with HS 578T breast, in the assay with HT29 colon and in the assay with K-562 leukemia was over 100 µM throughout. In addition, the TGI in the assay with KM12 colon, with OVCAR-5 ovarian, in the assay with PC-3 prostate, with SF-268 CNS, in the assay with SF-295 CNS and in the assay on SK-MEL-2 melanoma was over 100 µM throughout. Moreover, the TGI in the assay with SK-MEL-28 melanoma, with SK-OV-3 ovarian, in the assay on SN12C renal, in the assay with TK-10 renal, in the assay with UACC-257 melanoma and with UACC-62 melanoma was over 100 µM each time.
With `COc1ccccc1NC(=S)Nc1cc(C)ccn1`, the TGI in the assay with 786-0 renal, in the assay on BT-549 breast, in the assay with HS 578T breast, in the assay with HT29 colon, with K-562 leukemia and in the assay with KM12 colon was over 100 µM each time. Further, the TGI in the assay with OVCAR-5 ovarian, in the assay with PC-3 prostate, with SF-268 CNS, in the assay with SF-295 CNS, in the assay on SF-539 CNS and with SK-MEL-2 melanoma was over 100 µM throughout. For the same molecule, the TGI in the assay with SK-MEL-28 melanoma, with SK-OV-3 ovarian, in the assay on SN12C renal, in the assay with TK-10 renal, with UACC-257 melanoma and in the assay with UACC-62 melanoma was over 100 µM throughout.
On to `CC(=O)Oc1c2oc3cc(O)c(O)cc3c2c(OC(C)=O)c2oc3cc(O)c(O)cc3c12`, for which the TGI in the assay on 786-0 renal was over 100 µM; in the assay on ACHN renal it was 74.8 µM; with BT-549 breast, 31.1 µM; with HS 578T breast, 36.4 µM; in the assay with HT29 colon, 70.9 µM; in the assay with K-562 leukemia, over 100 µM. Also, the TGI in the assay with KM12 colon came out at 44.4 µM; in the assay on OVCAR-5 ovarian, 56.3 µM; in the assay with PC-3 prostate, 56.9 µM; with SF-268 CNS it was 51 µM; in the assay with SF-295 CNS, 30.3 µM; with SF-539 CNS, 53.3 µM. In addition, the TGI is 42.1 µM in the assay with SK-MEL-2 melanoma; 41.5 µM in the assay with SK-MEL-28 melanoma; 59.4 µM in the assay with SK-OV-3 ovarian; 58.6 µM in the assay on SN12C renal; 32.9 µM in the assay on TK-10 renal; 38.8 µM in the assay on UACC-257 melanoma. Besides, the TGI in the assay with UACC-62 melanoma is 40.2 µM.
In the case of `O=[N+]([O-])c1sc2ccc(Cl)cc2c1Nc1ccc(Cl)cc1`, the TGI with 786-0 renal, in the assay on ACHN renal, in the assay with BT-549 breast, in the assay with HS 578T breast, with HT29 colon and in the assay with K-562 leukemia was over 100 µM throughout. In addition, the TGI in the assay on KM12 colon, in the assay on OVCAR-5 ovarian, with PC-3 prostate, in the assay with SF-268 CNS, with SF-295 CNS and in the assay on SF-539 CNS was over 100 µM throughout. Further, the TGI in the assay with SK-MEL-2 melanoma, in the assay with SK-MEL-28 melanoma, in the assay on SK-OV-3 ovarian, with SN12C renal, with TK-10 renal and with UACC-62 melanoma was over 100 µM in each case.
Turning to `CCCCCCCCCc1c(O)c(O)c(CCCCCCCCC)c(CCCCCCCCC)c1CCCCCCCCC`, the TGI in the assay with 786-0 renal, with ACHN renal, in the assay on BT-549 breast, in the assay on HS 578T breast, in the assay on HT29 colon and with K-562 leukemia was over 100 µM in each case. Besides, the TGI with KM12 colon, in the assay on OVCAR-5 ovarian, in the assay with PC-3 prostate, in the assay with SF-268 CNS, with SF-295 CNS and in the assay with SF-539 CNS was over 100 µM each time. Also, the TGI in the assay with SK-MEL-2 melanoma, in the assay on SK-MEL-28 melanoma, in the assay on SK-OV-3 ovarian, in the assay with SN12C renal, with TK-10 renal and with UACC-257 melanoma was over 100 µM throughout. In the assay on UACC-62 melanoma, this molecule registered a TGI of over 100 µM.
Consider `CC(C)CN(CC#N)CC(C)C`, for which the TGI in the assay with 786-0 renal, in the assay on ACHN renal, in the assay with BT-549 breast, in the assay with HOP-92 NSCLC, with HS 578T breast and with HT29 colon was over 100 µM in each case. Further, the TGI with K-562 leukemia, with KM12 colon, in the assay on OVCAR-5 ovarian, with PC-3 prostate, with SF-268 CNS and in the assay on SF-295 CNS was over 100 µM each time. Besides, the TGI with SK-MEL-28 melanoma, in the assay with SK-OV-3 ovarian, in the assay with SN12C renal, in the assay on TK-10 renal, in the assay with UACC-257 melanoma and in the assay on UACC-62 melanoma was over 100 µM in each case.
With `O=C(O)C12C3CCC(O3)C1(C(=O)O)C1CCC2O1` (centres undefined), the TGI in the assay on 786-0 renal, in the assay on ACHN renal, in the assay with BT-549 breast, in the assay with HS 578T breast, in the assay with HT29 colon and with K-562 leukemia was over 100 µM in each case. Further, the TGI in the assay on KM12 colon, in the assay with OVCAR-5 ovarian, in the assay with PC-3 prostate, in the assay with SF-268 CNS, in the assay with SF-295 CNS and in the assay with SF-539 CNS was over 100 µM each time. Further, the TGI in the assay on SK-MEL-2 melanoma, with SK-MEL-28 melanoma, in the assay on SK-OV-3 ovarian, in the assay on SN12C renal, in the assay on TK-10 renal and in the assay on UACC-257 melanoma was over 100 µM throughout. The molecule also registered a TGI with UACC-62 melanoma of over 100 µM.
As to `O=C(/C=C/c1ccc(O)c(O)c1)NCCc1ccc(-c2ccccc2)cc1`, the TGI was over 100 µM in the assay on 786-0 renal; over 100 µM in the assay on BT-549 breast; over 100 µM in the assay on HS 578T breast; over 100 µM in the assay on HT29 colon; 80.4 µM with K-562 leukemia; over 100 µM in the assay with KM12 colon. The TGI in the assay with OVCAR-5 ovarian, in the assay with PC-3 prostate, in the assay on SF-268 CNS, in the assay with SF-295 CNS, with SF-539 CNS and with SK-MEL-2 melanoma was over 100 µM throughout. The TGI with SK-MEL-28 melanoma is over 100 µM; with SK-OV-3 ovarian, over 100 µM; with TK-10 renal it was 63.3 µM; in the assay with UACC-257 melanoma, over 100 µM.
Consider `N#Cc1c(-c2ccccc2)c(C#N)c(=O)n(C2OC(CO)C(O)C(O)C2O)c1S` (centres undefined), for which the TGI in the assay on 786-0 renal, with ACHN renal, in the assay with BT-549 breast, with HS 578T breast, with HT29 colon and with K-562 leukemia was over 100 µM throughout. In addition, the TGI in the assay on KM12 colon, with OVCAR-5 ovarian, in the assay with PC-3 prostate, in the assay with SF-268 CNS, with SF-295 CNS and in the assay on SF-539 CNS was over 100 µM throughout. The TGI in the assay on SK-MEL-2 melanoma, with SK-MEL-28 melanoma, with SK-OV-3 ovarian, with SN12C renal, in the assay on TK-10 renal and with UACC-257 melanoma was over 100 µM each time. Besides, in the assay on UACC-62 melanoma, the TGI is over 100 µM.
For `NC(N)=NC(N)=Nc1ccccc1` (tested in a mixture with another compound), the TGI in the assay on 786-0 renal, with ACHN renal, in the assay on BT-549 breast, in the assay with HS 578T breast, in the assay on HT29 colon and with K-562 leukemia was over 100 µM each time. Also, the TGI with KM12 colon, with OVCAR-5 ovarian, in the assay with PC-3 prostate, in the assay with SF-268 CNS, in the assay on SF-295 CNS and in the assay with SF-539 CNS was over 100 µM in each case. Also, the TGI in the assay on SK-MEL-2 melanoma, in the assay on SK-MEL-28 melanoma, in the assay with SK-OV-3 ovarian, in the assay with SN12C renal, in the assay on TK-10 renal and with UACC-257 melanoma was over 100 µM in each case. The molecule also displayed a TGI in the assay with UACC-62 melanoma of over 100 µM.
On to `CCOC(=O)c1[nH]c2nc(SC)nc(Nc3ccccc3Cl)c2c1N`, for which the TGI with 786-0 renal came to 46 µM; in the assay with ACHN renal, 46.1 µM; in the assay on BT-549 breast it was 82.1 µM; in the assay on HS 578T breast, 61.8 µM; in the assay with HT29 colon it was 47.1 µM; in the assay with K-562 leukemia, 40.5 µM. The TGI in the assay on KM12 colon was over 100 µM; in the assay on OVCAR-5 ovarian it was over 100 µM; in the assay on PC-3 prostate, 37.1 µM; with SF-268 CNS, 60.9 µM; in the assay on SF-295 CNS, 51.5 µM; in the assay with SK-MEL-2 melanoma, over 100 µM. Also, the TGI in the assay on SK-MEL-28 melanoma is over 100 µM; with SK-OV-3 ovarian, 56.7 µM; in the assay on SN12C renal, over 100 µM; in the assay with TK-10 renal, 56.3 µM; in the assay with UACC-257 melanoma it was over 100 µM; in the assay with UACC-62 melanoma, 84.7 µM.
